Patent US20240148821A1, “PHARMACEUTICAL USE OF CYCLIC PEPTIDE COMPOUND” (CHUGAI SEIYAKU KABUSHIKI KAISHA, priority 2021, published 2024)
Numbered stars: 1 amine (or outer) side, 2 acyl side, 3 side chain; on linkers, the order of the positions; unused ones are H or OH. Bridge positions count the residues as written; N and C are the ends. Square brackets hold non-standard residues; d marks the D form. Peptide text beside a SMILES is read from it. * marks the point of attachment. hPhe(3,5-F2-4-CF3) = N[C@@H](CCc1cc(F)c(C(F)(F)F)c(F)c1)C(=O)O; hPhe(3-Cl-4-CF3) = N[C@@H](CCc1ccc(C(F)(F)F)c(Cl)c1)C(=O)O; hPhe(3-F,4-CF3) = N[C@@H](CCc1ccc(C(F)(F)F)c(F)c1)C(=O)O; NMePhe(4-Cl) = CN[C@@H](Cc1ccc(Cl)cc1)C(=O)O; NMePhe(4-Me) = CN[C@@H](Cc1ccc(C)cc1)C(=O)O; NMePhe(2-Cl) = CN[C@@H](Cc1ccccc1Cl)C(=O)O; NMedβ3hAla = C[C@H](CC(=O)[*:2])N(C)[*:1]; NMeGly(cPent) = CN[C@H](C(=O)O)C1CCCC1; NMeCha = CN[C@@H](CC1CCCCC1)C(=O)O; NMeChg = CN[C@H](C(=O)O)C1CCCCC1; NMeD = CN[C@@H](CC(=O)O)C(=O)O; NMeL = CN[C@@H](CC(C)C)C(=O)O; NMeV = CN[C@H](C(=O)O)C(C)C; NMeS = CN[C@@H](CO)C(=O)O; Morpholide = C1CN(*)CCO1; NMeA = CN[C@@H](C)C(=O)O; NMeAib = CNC(C)(C)C(=O)O; Piperidide = C1CCN(*)CC1; Pra = C#CC[C@H](N)C(=O)O; Ac5c = NC1(C(=O)O)CCCC1; Aze = O=C(O)[C@@H]1CCN1; Isopentyl = CC(C)CC*; Sar = CNCC(=O)O

Columns and labels:
[1] = molecular target: protein-protein interaction between Kras and SOS1 (biotin-tagged human Kras loaded with GDP, His-tagged human SOS1) (Homo sapiens (Human), UniProt P01116, G12D); test: Protein-protein interaction inhibition between Kras and SOS1 (KrasG12D-SOS PPI) using AlphaScreen; type: biochemical; conditions: AlphaScreen; biotin-tagged human Kras loaded with GDP, His-tagged human SOS1; read-out: KRAS G12D-SOS PPI IC50;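 further: kras produced in E. coli, Ni-coupled donor beads and streptavidin acceptor beads, excitation 680 nm with emission detected at 520–620 nm via singlet oxygen transfer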
[2] = test system: Human pancreatic cancer cell line AsPC-1 (G12D mutation Kras); test: AsPC-1 cell growth inhibition (AsPC-1 CGI); type: cell-based; conditions: read-out: AsPC-1 cell growth inhibition, 50% growth inhibitory concentration (IC50 value); 96 hours, CellTiter-Glo, values classified in ranges
Method: Test compounds were serially dilated with dimethyl sulfoxide, and 200 nL was then dispensed to a U-bottom 96-well plate using Labcyte Echo. […] The cell suspension was dispensed to a. plate containing a test compound at 100 μL per well and incubated at 37° C. in a 5% carbon dioxide gas incubator. 96 hours later, 80 μL of CellTiter-Glo (Promega) was added to each well and fluorescence was measured.

## CC[C@H](C)[C@@H]1NC(=O)[C@H](CC(C)C)N(C)C(=O)C[C@@H](C(=O)N2CCOCC2)N(C)C(=O)[C@H](C2CCCC2)N(C)C(=O)C2(CCCC2)NC(=O)[C@@H]2CCCN2C(=O)[C@H](CCc2ccc(C(F)(F)F)c(F)c2)NC(=O)CN(C)C(=O)[C@H](Cc2ccc(C)cc2)N(C)C(=O)[C@@H]2CCN2C(=O)[C@H](C)N(C)C1=O [Compound 938] ([NMeL]I[NMeA][Aze][NMePhe(4-Me)][Sar][hPhe(3-F,4-CF3)]P[Ac5c][NMeGly(cPent)][NMeD]-Morpholide; lactam N-11)
[1]
  IC50: 0.00069 µM
[2]
  IC50: ≤ 0.02 µM

## CC[C@H](C)[C@@H]1NC(=O)[C@H](CC(C)C)N(C)C(=O)C[C@@H](C(=O)N2CCCCC2)N(C)C(=O)[C@H](C(C)C)N(C)C(=O)C2(CCCC2)NC(=O)[C@H](C)N(C)C(=O)[C@H](CCc2ccc(C(F)(F)F)c(Cl)c2)NC(=O)CN(C)C(=O)[C@H](CC2CCCCC2)N(C)C(=O)CN(C)C(=O)CN(C)C1=O [Compound 939] ([NMeL]I[Sar][Sar][NMeCha][Sar][hPhe(3-Cl-4-CF3)][NMeA][Ac5c][NMeV][NMeD]-Piperidide; lactam N-11)
[1]
  IC50: 0.008 µM
[2]
  IC50: > 0.5 µM

## CC[C@H](C)[C@@H]1NC(=O)[C@H](CC(C)C)N(C)C(=O)C[C@@H](C(=O)N2CCCCC2)N(C)C(=O)[C@H](C2CCCCC2)N(C)C(=O)C2(CCCC2)NC(=O)[C@H](COCCC(C)C)N(C)C(=O)[C@H](CCc2ccc(C(F)(F)F)c(Cl)c2)NC(=O)CN(C)C(=O)[C@H](CC2CCCCC2)N(C)C(=O)CN(C)C(=O)CN(C)C1=O [Compound 940] ([NMeL]I[Sar][Sar][NMeCha][Sar][hPhe(3-Cl-4-CF3)][NMeS](Isopentyl)[Ac5c][NMeChg][NMeD]-Piperidide; lactam N-11)
[1]
  IC50: 0.15 µM
[2]
  IC50: > 0.5 µM

## C#CC[C@@H]1NC(=O)[C@H](CC(C)C)N(C)C(=O)C[C@@H](C(=O)N2CCCCC2)N(C)C(=O)[C@H](C(C)C)N(C)C(=O)C2(CCCC2)NC(=O)[C@@H]2CCCN2C(=O)[C@H](CCc2ccc(C(F)(F)F)c(Cl)c2)NC(=O)CN(C)C(=O)[C@H](CC2CCCCC2)N(C)C(=O)[C@@H]2CCN2C(=O)[C@H](C)N(C)C1=O [Compound 946] ([NMeL][Pra][NMeA][Aze][NMeCha][Sar][hPhe(3-Cl-4-CF3)]P[Ac5c][NMeV][NMeD]-Piperidide; lactam N-11)
[1]
  IC50: 0.0075 µM
[2]
  IC50: > 0.5 µM

## CC(C)C[C@@H]1NC(=O)C(C)(C)N(C)C(=O)[C@H](CC(C)C)NC(=O)[C@H](CCc2ccc(C(F)(F)F)c(F)c2)NC(=O)CN(C)C(=O)[C@H](Cc2ccc(Cl)cc2)N(C)C(=O)CN(C)C(=O)CN(C)C(=O)[C@H](C(C)C)NC(=O)[C@H](CC(C)C)N(C)C(=O)C[C@@H](C)N(C)C1=O [Compound 956] (cyclo(L[NMeAib]L[NMedβ3hAla][NMeL]V[Sar][Sar][NMePhe(4-Cl)][Sar][hPhe(3-F,4-CF3)]))
[1]
  IC50: 0.08 µM
[2]
  IC50: > 0.5 µM

## CC[C@H](C)[C@@H]1NC(=O)[C@H](C)N(C)C(=O)C[C@@H](C(=O)N2CCCCC2)N(C)C(=O)[C@H](C(C)C)N(C)C(=O)C2(CCCC2)NC(=O)[C@H](Cc2ccccc2Cl)N(C)C(=O)[C@H](CCc2ccc(C(F)(F)F)c(Cl)c2)NC(=O)CN(C)C(=O)[C@H](CC2CCCCC2)N(C)C(=O)CN(C)C(=O)CN(C)C1=O [Compound 963] ([NMeA]I[Sar][Sar][NMeCha][Sar][hPhe(3-Cl-4-CF3)][NMePhe(2-Cl)][Ac5c][NMeV][NMeD]-Piperidide; lactam N-11)
[1]
  IC50: 0.013 µM
[2]
  IC50: > 0.5 µM

## CC[C@H](C)[C@@H]1NC(=O)[C@H](CC(C)C)N(C)C(=O)C[C@@H](C(=O)N(C)C)N(C)C(=O)[C@H](C2CCCC2)N(C)C(=O)C2(CCCC2)NC(=O)[C@@H]2CCCN2C(=O)[C@H](CCc2cc(F)c(C(F)(F)F)c(F)c2)NC(=O)CN(C)C(=O)[C@H](Cc2ccc(C)cc2)N(C)C(=O)[C@@H]2CCN2C(=O)[C@H](C)N(C)C1=O [Compound 965] ([NMeL]I[NMeA][Aze][NMePhe(4-Me)][Sar][hPhe(3,5-F2-4-CF3)]P[Ac5c][NMeGly(cPent)][NMeD]-NMe2; lactam N-11)
[1]
  IC50: 0.00086 µM
[2]
  IC50: ≤ 0.02 µM
